Consider 22 molecules from PubChem BioAssay (NCI).

What all share (assay): growth of human tumour cells (NCI), 48 h
Experiment [1] has as its system A549 NSCLC.
Experiment [2] concerns CCRF-CEM leukemia.
Experiment [3] deals with EKVX NSCLC.
Experiment [4] concerns K-562 leukemia.
Experiment [5] concerns KM12 colon.
The subject of experiment [6] is MDA-MB-435.
The subject of experiment [7] is NCI-H226 lung.
In experiment [8] the test system is SK-OV-3 ovarian.

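Step 1: Grow cells in 96-well plates. Step 2: Expose to compound for 48 hours at 5 concentrations. Step 3: Interpolate endpoints linearly; if unreached, use highest concentration. TGI denotes the concentration required for complete inhibition of growth.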 Bounds are passed on as bounds.

Consider `C[C@@H](CC(=O)OCc1ccccc1)OC1OC(COC(=O)C(C)(C)C)C(OC(=O)C(C)(C)C)C(OC(=O)C(C)(C)C)C1OC(=O)C(C)(C)C` (stereo partly specified), for which the TGI in experiment [1], in experiment [2], in experiment [3], in experiment [4], in experiment [5] and in experiment [6] was more than 100 µM in each case. In addition, the TGI in experiment [7] and in experiment [8] was more than 100 µM each time.

Turning to `Cc1nc2sc3cccc(Cl)c3n2c(=O)c1N=Nc1ccc(Cl)cc1`, the TGI in experiment [1], in experiment [2], in experiment [3], in experiment [4], in experiment [5] and in experiment [6] was more than 100 µM each time. Further, the TGI in experiment [7] and in experiment [8] was more than 100 µM throughout.

Consider `C=C1CC[C@@H](CCC2CCC3(OC2)O[C@]2(O)CC[C@@]3(C)OC2(C)C)C(C)(C)[C@H]1C/C=C1\CCOC1=O` (stereo partly specified), for which the TGI is more than 100 µM in experiment [1]; 83 µM in experiment [2]; more than 71.5 µM in experiment [3]; 26.5 µM in experiment [4]; more than 60.3 µM in experiment [5]; 86.4 µM in experiment [6]. In addition, the TGI in experiment [7] is 35.2 µM; in experiment [8] it was more than 100 µM.

Turning to `COC(=O)/C=C(\C(=O)OC)c1cc(C)c2cc(C(C)C)ccc(C)c1-2`, the TGI in experiment [1], in experiment [2], in experiment [3], in experiment [4], in experiment [5] and in experiment [6] was more than 100 µM each time. For the same molecule, the TGI in experiment [7] and in experiment [8] was more than 100 µM in each case.

On to `COc1ccc(-c2oc3cc(-c4cc5oc(-c6ccc(OC)cc6)c(-c6ccc(OC)cc6)c5cc4OC)c(OC)cc3c2-c2ccc(OC)cc2)cc1`, for which the TGI in experiment [1], in experiment [2], in experiment [3], in experiment [4], in experiment [5] and in experiment [6] was more than 100 µM in each case. For the same molecule, the TGI in experiment [7] and in experiment [8] was more than 100 µM in each case.

Turning to `CC(C)(C)OC(=O)N(CCCCNC(=O)C(F)(F)F)CCCNC(=O)C(F)(F)F`, the TGI in experiment [1], in experiment [2], in experiment [3], in experiment [4], in experiment [5] and in experiment [6] was more than 100 µM in each case. Besides, the TGI in experiment [7] and in experiment [8] was more than 100 µM throughout.

As to `CC(N)(CC(O)(C(F)(F)Cl)C(F)(F)Cl)C(=O)O` (stereo unspecified), the TGI in experiment [1], in experiment [2], in experiment [3], in experiment [4], in experiment [5] and in experiment [6] was more than 10 µM in each case. Moreover, the TGI in experiment [7] and in experiment [8] was more than 10 µM in each case.

As for `Cc1ccc(S[C@@](C=O)(NC(=O)OCc2ccccc2)C(F)(F)F)cc1`, the TGI was 88.3 µM in experiment [1]; 52.3 µM in experiment [2]; 54 µM in experiment [3]; more than 100 µM in experiment [4]; 52.8 µM in experiment [5]; 86.3 µM in experiment [6]. Besides, the figures for the TGI in experiment [7] and in experiment [8] were 40.2 µM and more than 100 µM, respectively.

On to `CN=c1sc2c(n1C)C(=O)c1ccccc1C2=O`, for which the TGI came out at 3.94 µM in experiment [1]; 44.4 µM in experiment [2]; 24.3 µM in experiment [3]; 12.2 µM in experiment [4]; 13.5 µM in experiment [5]; 0.374 µM in experiment [6]. Also, the results for the TGI in experiment [7] and in experiment [8] were 5.65 µM and 77.9 µM, respectively.

Turning to `CCOC(=O)c1c2c(n(-c3ccc(C)cc3)c1C)-c1ccccc1C(=O)C2(C(=O)OCC)C(=O)OCC`, the TGI is more than 100 µM in experiment [1]; more than 100 µM in experiment [2]; more than 88.2 µM in experiment [3]; more than 59.4 µM in experiment [4]; more than 100 µM in experiment [5]; 93.5 µM in experiment [6]. Moreover, the TGI in experiment [7] was more than 94.7 µM; in experiment [8], more than 100 µM.

Consider `Cc1ccc(OCC2OC(n3cnc4c(Cl)nc(Nc5cc(Cl)cc(Cl)c5)nc43)CC2Oc2ccc(C)cc2)cc1` (stereo unspecified), for which the TGI in experiment [1], in experiment [2], in experiment [3], in experiment [4], in experiment [5] and in experiment [6] was more than 100 µM in each case. The TGI in experiment [7] and in experiment [8] was more than 100 µM each time.

For `C=CCC(CCC(C)=O)(C(=O)OCC)C(=O)OCC`, the TGI in experiment [1], in experiment [2], in experiment [3], in experiment [4], in experiment [5] and in experiment [6] was more than 100 µM throughout. The TGI in experiment [7] and in experiment [8] was more than 100 µM each time.

Take `NC1=NC2(COC(c3ccccc3)(c3ccccc3)c3ccccc3)OC(COC(c3ccccc3)(c3ccccc3)c3ccccc3)C(O)C2O1` (stereo unspecified): the TGI in experiment [1], in experiment [2], in experiment [3], in experiment [4], in experiment [5] and in experiment [6] was more than 100 µM each time. In addition, the TGI in experiment [7] and in experiment [8] was more than 100 µM in each case.

Take `Cc1[nH]n(-c2nc3c(c(=O)[nH]2)CCCC3)c(=O)c1CCO`: the TGI in experiment [1], in experiment [2], in experiment [3], in experiment [4], in experiment [5] and in experiment [6] was more than 100 µM each time. In addition, the TGI in experiment [7] and in experiment [8] was more than 100 µM each time.

`S=C1Cc2c(-c3ccccc3)cc(-c3cccc(Cl)c3)nc2-c2ccccc2N1`: the TGI in experiment [1] is 22.5 µM; in experiment [2], 30.5 µM; in experiment [3], 24.4 µM; in experiment [4], more than 100 µM; in experiment [5], more than 100 µM; in experiment [6], more than 60.9 µM. Further, the TGI in experiment [7] is 19.4 µM; in experiment [8] it was 17.4 µM.

Regarding `Oc1c(N2CCCCC2)cc(-c2cc(N3CCCCC3)c(O)c3ccccc23)c2ccccc12`, the TGI in experiment [1] is more than 100 µM; in experiment [2] it was more than 100 µM; in experiment [3], more than 100 µM; in experiment [4] it was more than 100 µM; in experiment [5] it was more than 100 µM; in experiment [6] it was 23.2 µM. For the same molecule, the TGI in experiment [7] and in experiment [8] was more than 100 µM throughout.

In the case of `COC(=O)c1cc2c(cc1Cl)Sc1nnc(Nc3ccccc3)n1S2(=O)=O`, the TGI is 26.9 µM in experiment [1]; 6.13 µM in experiment [2]; 19.9 µM in experiment [3]; more than 42 µM in experiment [4]; 8.11 µM in experiment [5]; 22.7 µM in experiment [6]. The TGI in experiment [7] worked out at 14.8 µM; in experiment [8], 19.4 µM.

Consider `C[C@H]1CC[C@@]2(OC1)O[C@H]1C[C@H]3[C@@H]4CC[C@@H]5C[C@@H](OC6OC(CO)C(O)C(O)C6OC6OC(CO)C(O)C(O)C6O)CC[C@]5(C)[C@H]4CC[C@]3(C)[C@H]1[C@@H]2C` (stereo partly specified), for which the TGI in experiment [1] was 3.69 µM; in experiment [2] it was 3.73 µM; in experiment [3], 3.79 µM; in experiment [4] it was 4.33 µM; in experiment [5] it was 4.62 µM; in experiment [6] it was 3.88 µM. The TGI stood at 4.2 µM in experiment [7] and 3.29 µM in experiment [8].

Consider `CCCCCCCCCCCCCCCCCCNc1ccn(C2OC(COP(=O)(O)OCC3OC(n4ccc(N)nc4=O)C(O)C3O)C(O)C2O)c(=O)n1` (stereo unspecified), for which the TGI in experiment [1], in experiment [2], in experiment [3], in experiment [4], in experiment [5] and in experiment [6] was more than 100 µM each time. Moreover, the TGI in experiment [7] and in experiment [8] was more than 100 µM each time.

For the molecule `O=[N+]([O-])c1ccc(/C=N/Nc2nc3ccccc3[nH]2)o1`, the TGI stood at 30.4 µM in experiment [1]; 26.6 µM in experiment [2]; 67.2 µM in experiment [3]; 32.1 µM in experiment [4]; 24.1 µM in experiment [5]; 18 µM in experiment [6]. In addition, the TGI is 55.5 µM in experiment [7] and more than 100 µM in experiment [8].

`NS(=O)(=O)c1nnc(NC(=S)NC(=O)Nc2ccc(Cl)c(Cl)c2)s1`: the TGI in experiment [1] is more than 100 µM; in experiment [2], more than 100 µM; in experiment [3], 80.1 µM; in experiment [4], more than 100 µM; in experiment [5] it was 39.9 µM; in experiment [6] it was 41.9 µM. Besides, the TGI in experiment [7] is more than 100 µM; in experiment [8], 62.1 µM.

Take `Cc1c(C)c2c(c(N)c1C#N)C(=O)N(Cc1ccc(S(N)(=O)=O)cc1)C2=O`: the TGI in experiment [1], in experiment [2], in experiment [3], in experiment [4], in experiment [5] and in experiment [6] was more than 100 µM each time. For the same molecule, the TGI was more than 62.9 µM in experiment [7] and more than 100 µM in experiment [8].
